Measurements: patent US20230416328A1, “C-Type Natriuretic Peptides and Methods Thereof in Treating Acute Lung Injury” (priority 2020, published 2023)
Numbered stars: 1 amine (or outer) side, 2 acyl side, 3 side chain; on linkers, the order of the positions; unused ones are H or OH. Bridge positions count the residues as written; N and C are the ends. Square brackets hold non-standard residues; d marks the D form. Peptide text beside a SMILES is read from it. * marks the point of attachment. C18 diacid = O=C(O)CCCCCCCCCCCCCCCCC(=O)*; γGlu = O=C(O)[C@H](CCC(=O)[*:2])N[*:1]; Aad = N[C@@H](CCCC(=O)O)C(=O)O; AEEA = NCCOCCOCC(=O)O

Tests used:
LPS-induced sepsis = LPS-induced sepsis lethality in Balb/c mice (survival); type: in vivo; conditions: LPS 10 mg/kg i.p., 1.0 mg/kg s.c.
Protocol: Male Balb/c mice (11 week) were purchased from Kyudo (Saga, Japan) and maintained under a 12-hour light/12-hour dark cycle with free access to water and standard mouse diet (MF diet, Oriental Yeast Co., Ltd. Tokyo, Japan). […] Test articles were administered right after LPS administration. Survival was observed every 2 hours.
Table 1. […] Shown is the % survival by hours. […] Survival was observed every 2 hours (FIGS. 13A and 13B). First mortality observed was in Italicized and bold and the last observation survival % was in bold in the table.

[1] = healthy human volunteers, bolus injection; cited from earlier work
[2] = Pharmacokinetic study: plasma CNP (ELISA) after subcutaneous bolus in CD-1 mice
Protocol: All test articles were formulated or dissolved in 100 mM sorbitol, 100 mM methionine, 20 mM histidine, pH 6.0. […] Blood samples were processed in K2EDTA tubes to obtain plasma. Plasma was analyzed by commercially available CNP ELISA kit from Phoenix Pharmaceuticals (cat #EKE-012-03).

[3] = species not stated; cited from earlier work
[4] = Pharmacokinetic study of dCNP-s1 and dCNP-s2: plasma CNP (ELISA) in CD-1 mice; type: in vivo; conditions: 2.0 mg/Kg s.c. bolus, FIG. 20
Protocol: For this pharmacokinetic study, all animals (mice) for this study were maintained under a 12-hour light/12-hour dark cycle with free access to water and standard mouse diet (Lab Pico Rodent #5053; Animal Specialties, Woodburn, OR). Male CD-1 mice (6-8 weeks old; Charles River, Hollister, CA) were treated with 2.0 mg/Kg of CNP derivative s1 (dCNP-s1; PharmaIN Corp, Bothell, WA), and CNP derivative s2 (dCNP-s2; PharmaIN Corp, Bothell, WA) via subcutaneous administration between the shoulder blades.

[5] = in vivo; cited from earlier work
[6] = hours '0' [sic] (second to last observation)

Row | Compound | Percent animal survival at various time after LPS administration (LPS-induced sepsis; hours 1 (last observation)) | Percent animal survival at various time after LPS administration (LPS-induced sepsis; hours 3 [sic]) | Percent animal survival at various time after LPS administration (LPS-induced sepsis; hours 7 [sic]) | Percent animal survival at various time after LPS administration (LPS-induced sepsis; hours 9 [sic]) | Percent animal survival at various time after LPS administration (LPS-induced sepsis; hours '0') | Percent animal survival at various time after LPS administration (LPS-induced sepsis; [6]) | Percent animal survival at various time after LPS administration (LPS-induced sepsis; hours '2') | Percent animal survival at various time after LPS administration (LPS-induced sepsis; hours '8') | also measured
1 | CC[C@H](C)[C@@H]1NC(=O)[C@H](CCCNC(=N)N)NC(=O)[C@H](CC(=O)O)NC(=O)[C@H](CCSC)NC(=O)[C@H](CCCNC(=N)N)NC(=O)CNC(=O)CNC(=O)[C@H](Cc2ccccc2)NC(=O)[C@@H](NC(=O)[C@H](CO)NC(=O)[C@H](CO)NC(=O)[C@H](CCCNC(=N)N)NC(=O)[C@H](CCCNC(=N)N)NC(=O)[C@H](CC(C)C)NC(=O)[C@@H](N)CO)CSSC[C@@H](C(=O)N[C@@H](CC(N)=O)C(=O)N[C@@H](CO)C(=O)N[C@@H](Cc2ccccc2)C(=O)N[C@@H](CCCNC(=N)N)C(=O)N[C@@H](Cc2ccc(O)cc2)C(=O)O)NC(=O)CNC(=O)[C@H](CC(C)C)NC(=O)CNC(=O)[C@H](CO)NC(=O)[C@H](CCC(N)=O)NC(=O)[C@H](C)NC(=O)CNC1=O [ANP, atrial natriuretic peptide] | 10% | 100% | 60% | 30% | 100% | 10% | 100% | 30% | Percent animal survival at various time after LPS administration (LPS-induced sepsis; hours printed '6' (r14)): 60%
2 | CC[C@H](C)[C@@H]1NC(=O)[C@H](CCCNC(=N)N)NC(=O)[C@H](CC(=O)O)NC(=O)[C@H](CC(C)C)NC(=O)[C@H](CCCCN)NC(=O)[C@H](CC(C)C)NC(=O)CNC(=O)[C@H](Cc2ccccc2)NC(=O)[C@@H](NC(=O)CNC(=O)[C@H](CCCCN)NC(=O)[C@H](CO)NC(=O)[C@H](CC(C)C)NC(=O)CN)CSSC[C@@H](C(=O)O)NC(=O)CNC(=O)[C@H](CC(C)C)NC(=O)CNC(=O)[C@H](CO)NC(=O)[C@H](CCSC)NC(=O)[C@H](CO)NC(=O)CNC1=O [CNP] |  |  |  |  |  |  |  |  | heart rate [1]: significant increase in heart rate; systolic and diastolic blood pressure [1]: transient but significant decrease; plasma CNP ([2]; CD-1 mice, 2.0 mg/Kg s.c. bolus, FIG. 1A): low plasma level of CNP; half-life [3]: 2 to 13 min
3 | CCCc1nc(C)c2c(=O)[nH]c(-c3cc(S(=O)(=O)N4CCN(CC)CC4)ccc3OCC)nn12 [VDN, Vardenafil] | 0% | 100% | 60% | 20% | 100% | 0% | 100% | 20% | Percent animal survival at various time after LPS administration (LPS-induced sepsis; hours printed '5' (r13)): 100%
4 | CC[C@H](C)[C@@H]1NC(=O)[C@H](CCCNC(=N)N)NC(=O)[C@H](CC(=O)O)NC(=O)[C@H](CC(C)C)NC(=O)[C@H](CCCCN)NC(=O)[C@H](CC(C)C)NC(=O)CNC(=O)[C@H](Cc2ccccc2)NC(=O)[C@@H](NC(=O)CNC(=O)COCCOCCNC(=O)COCCOCCNC(=O)CCCCCCCCCCCCCCCCC(=O)O)CSSC[C@@H](C(=O)O)NC(=O)CNC(=O)[C@H](CC(C)C)NC(=O)CNC(=O)[C@H](CO)NC(=O)[C@H](CCCC(N)=O)NC(=O)[C@H](CO)NC(=O)CNC1=O [dCNP-s1] ({C18 diacid-AEEA-AEEA}-GCFGLKLDRIGS[Aad](NH2)SGLGC-OH; disulfide 2-18) |  |  |  |  |  |  |  |  | blood level of CNP relative to native CNP at similar weight/Kg dose [4]: 10 fold
5 | CC[C@H](C)[C@@H]1NC(=O)[C@H](CCCNC(=N)N)NC(=O)[C@H](CC(=O)O)NC(=O)[C@H](CC(C)C)NC(=O)[C@H](CCCCN)NC(=O)[C@H](CC(C)C)NC(=O)CNC(=O)[C@H](Cc2ccccc2)NC(=O)[C@@H](NC(=O)CNC(=O)COCCOCCNC(=O)COCCOCCNC(=O)CC[C@H](NC(=O)CCCCCCCCCCCCCCCCC(=O)O)C(=O)O)CSSC[C@@H](C(=O)O)NC(=O)CNC(=O)[C@H](CC(C)C)NC(=O)CNC(=O)[C@H](CO)NC(=O)[C@H](CCCC(N)=O)NC(=O)[C@H](CO)NC(=O)CNC1=O [dCNP-s2] ({C18 diacid-γGlu-AEEA-AEEA}-GCFGLKLDRIGS[Aad](NH2)SGLGC-OH; disulfide 2-18) |  |  |  |  |  |  |  |  | blood level of CNP relative to native CNP at similar weight/Kg dose [4]: 10 fold
6 | CCCCCCCCCCCCCCCCCC(=O)N[C@@H](CCCCN)C(=O)N[C@@H](CCCCN)C(=O)N[C@@H](CCCCN)C(=O)N[C@@H](CCCCN)C(=O)NCC(=O)NCC(=O)NCC(=O)NCC(=O)N[C@@H](CC(C)C)C(=O)N[C@@H](CO)C(=O)N[C@@H](CCCCN)C(=O)NCC(=O)N[C@H]1CSSC[C@@H](C(=O)O)NC(=O)CNC(=O)[C@H](CC(C)C)NC(=O)CNC(=O)[C@H](CO)NC(=O)[C@H](CCSC)NC(=O)[C@H](CO)NC(=O)CNC(=O)[C@H]([C@@H](C)CC)NC(=O)[C@H](CCCNC(=N)N)NC(=O)[C@H](CC(=O)O)NC(=O)[C@H](CC(C)C)NC(=O)[C@H](CCCCN)NC(=O)[C@H](CC(C)C)NC(=O)CNC(=O)[C@H](Cc2ccccc2)NC1=O [dCNP] |  |  |  |  |  |  |  |  | plasma CNP ([2]; mouse, in vivo, sc, 2 mg/kg): sustained plasma presence
7 | B-type natriuretic peptide [BNP] | 10% | 100% | 60% | 20% | 100% | 10% | 100% | 20% | Percent animal survival at various time after LPS administration (LPS-induced sepsis; hours printed '5' (r13)): 100%
8 | PGQEHPNARKYKGANKKGLS KGCFGLKLDR IGSMSGLGC (PGQEHPNARKYKGANKKGLSKGCFGLKLDRIGSMSGLGC) [BMN-111] |  |  |  |  |  |  |  |  | arterial blood pressure (BP) [5]: drops; heart rate (HR) [5]: increases
